IC50 data for three molecules are collected here from ChEMBL document CHEMBL1126531, “Synthesis of N-Acetylhemiaminal metabolites of opc-21268, vasopressin V1 receptor antagonist” (Bioorg Med Chem Lett, 1993).

Molecules are shown by their SMILES.

This assay addresses Vasopressin V1 receptor (Homo sapiens, UniProt P37288+P47901). The assay can be described thus: Compound was evaluated for antagonistic activity against vasopressin V1 receptor. It counts as functional.
What is called IC50 is the midpoint of a concentration-inhibition curve. A higher IC50 goes with a need for much substance. `CC(=O)NCCCOc1ccc(C(=O)N2CCC(N3C(=O)CCc4ccccc43)CC2)cc1` had an IC50 of 440 nM. Regarding `CC(=O)NC(O)CCOc1ccc(C(=O)N2CCC(N3C(=O)CCc4ccccc43)CC2)cc1` (stereo not drawn), the 50% inhibitory concentration (IC50) is 600 nM. As for `CC(=O)NC(O)CCOc1ccc(C(=O)N2CCC(n3c(=O)ccc4ccccc43)CC2)cc1` (stereo not drawn), the half-maximal inhibitory concentration (IC50) turned out to be 3300 nM.
